Assay results as given in patent US5223508A, “Pyridyl carboximidamide compounds useful in treating blood pressure” (Kirin Beer Kabushiki Kaisha, priority 1992, dated 1993).

What was measured:
[1] = tested on: isolated rat aortae; assay: Vasorelaxing effect on the isolated rat aortae (40 mM KCl contraction); set-up: species or system male Wistar rats; settings: inhibition of 40 mM KCl-induced contraction, isolated rat aorta
Description: Vasorelaxing effect on the isolated rat aortae
The compounds of the present invention were tested for their physiological activities by measuring the tension of isolated rat aortae isometrically.
Thoracic aortae obtained from male Wistar rats (weighing 250-350 g) were cut into ring segments about 3 mm long. The ring preparation was placed in an organ bath filled with 10 ml of Krebs-Ringer solution that was maintained at 37° C. and gassed with 95% O2 -5% CO2.
The preparation in the organ bath was allowed to equilibrate under resting tension of 1 g. After equilibration period, the solution in the organ bath was replaced with an isotonic solution containing 40 mM KCl to contract the preparation.
After the contraction induced by KCl had reached plateau, the concentration-response relationship for the test compound was determined by means of cumulative addition.
The relaxation response of the test compounds was expressed as the percent inhibition of the contraction induced by KCl, and the IC50 value, which is a concentration required for inhibiting the contraction induced by KCl to an extent of 50%, was calculated by the Probit method from the concentration-response curve.

[2] = tested on: potassium channel; assay: Potassium channel activating effect (86Rb efflux from rat thoracic aorta); set-up: species or system male Wistar rats; settings: 10^-4M, 8 minutes
Description: Male Wistar rats (weighing 250-350 g) were dehematized to death, and thoracic aortae were rapidly isolated. The aorta was opened along the longitudinal axis to prepare a flat sheet. The preparation was loaded with ^86 Rb in the Krebs-Ringer solution which contained ^86 Rb in the concentration of 10 μCi/ml and was gassed with 95% O2 -5% CO2 at 37° C. for 2 hours. The preparation was then transferred to a Krebs-Ringer solution not containing ^86 Rb, and washed to remove excess radioactivity for 18 minutes by refreshing the solution every 2 minutes. Finally the preparation was placed into a Krebs-Ringer solution containing each compound (10^-4M) for 8 minutes.
The amount of ^86 Rb efflux from the preparation in each period was determined with a γ-counter.
The increment in efflux rate during the application of the compound was expressed as percent of the efflux before the application of the compound.

[3] = tested on: male ddY mice; assay: Effect on hypoxia (survival time); type: in vivo; settings: oral, 96% N2 -4% O2, mean ± S.E.M.
Description: Effect of the compound of the present invention on hypoxia
The effect of the compound of the present invention [test compound: N-cyano-N'-(2-nitroxyethyl)-3-pyridinecarboximidamide (compound (13))] on hypoxia was examined in male ddY mice (4 week old). Mice were exposed to a gas mixture of 96% N2 -4% O2 that was streamed in a flow rate of 5 l/min.
The time from the onset of the gas stream till the stop of respiration [survival time (sec)] was measured.
The test compound was orally administered in the dosage form of a 2% suspension in gum arabic 30 minutes before the onset of the gas streaming. The control group was administered a gum arabic suspension only.

[4] = tested on: potassium channel; settings: literature; cited from earlier work
[5] = tested on: animal; settings: literature; cited from earlier work

Structure (SMILES) | Increment of Efflux (86Rb) [2] [%] | potassium channel activating effect [4] | effects in animal experiments [5] | other results
COc1ccc(NC(=NC#N)c2cccnc2)c(OC)n1 [(40), N-cyano-N'-3-(2,6-dimethoxypyridine)-3-pyridinecarboximidamide] | – | – | – | IC50 [1]: 10 µM
N#CNC(=NCCO[N+](=O)[O-])c1ccncc1 [(41), N-cyano-N'-(2-nitroxyethyl)-4-pyridinecarboximidamide] | 126.88 | – | – | –
N#CNC(=NCCO[N+](=O)[O-])c1cccnc1 [Compound (13), N-cyano-N'-(2-nitroxyethyl)-3-pyridinecarboximidamide] | 213.53 | – | – | Survival Time ([3]; 0.3 mg/kg): 130.27 ± 9.32 s; Survival Time ([3]; 1.0 mg/kg): 201.00 ± 13.40 s; Survival Time ([3]; 3.0 mg/kg): 523.15 ± 48.57 s
CC(N/C(=N\C#N)Nc1ccncc1)C(C)(C)C (centres unmarked) [pinacidil] | – | potassium channel activating effect | vasodilating effect, antihypertensive effect, coronary blood flow increasing effect, cerebral vasodilative effect and bronchodilatative effect | –
N#CNC(=NCc1ccccc1)c1cccnc1 [(17), N-cyano-N'-benzyl-3-pyridinecarboximidamide] | 135.41 | – | – | –
O=C(NCCO[N+](=O)[O-])c1cccnc1 [Nicorandil, nicorandil] | – | potassium channel activating effect | vasodilating effect, antihypertensive effect, coronary blood flow increasing effect, cerebral vasodilative effect and bronchodilatative effect | –
CC1(C)Oc2ccc(C#N)cc2[C@@H](N2CCCC2=O)[C@@H]1O (relative stereo) [chromakalim] | – | potassium channel activating effect | vasodilating effect, antihypertensive effect, coronary blood flow increasing effect, cerebral vasodilative effect and bronchodilatative effect | –
N#CNC(=NCCc1ccccc1)c1cccnc1 [(27), N-cyano-N'-(2-phenylethyl)-3-pyridinecarboximidamide] | 206.61 | – | – | –
